The results in this text go back to patent EP1655296A1, “Thrombin inhibitors” (Graffinity Pharmaceuticals AG, priority 2004, dated 2006).

In this assay the target is thrombin (Homo sapiens, UniProt P00734). In words: Ki determinations thrombin (fluorogenic substrate Tosyl-GPR-AMC). It counts as biochemical. Particulars: 20 °C; Tosyl-GPR-AMC 20 µM; thrombin concentration of 100 pM; HBS pH 7.4. As to the method:
The Ki determinations are carried out at 20 °C with the fluorogenic substrate Tosyl-GPR-AMC (Bachem, Heidelberg, Germany; λexc = 370 nm, λem = 450 nm) at a thrombin concentration of 100 pM in HBS pH 7.4. The substrate is added to a final concentration of 20 µM in a total assay volume of 100 µl. The enzymatic reaction is started by addition of substrate. The emission at 450 nm is monitored in 1 minute intervals for 10 minutes using a polarstar reader (BMG Laboratories, Offenburg, Germany). Initial velocities of the control and the inhibited reactions (vo and vi) are estimated in FU/min at different compound concentrations. The inhibition constants are calculated using the Michaelis-Menten equation for competitive inhibition.

Take `Fc1c(NCCC2CCCCN2)ncc(Cl)c1CCNCc1n[nH]c2ccc(Cl)cc12` (stereo not shown) [example 1]: the Ki was < 1 µM.
